Where a name gives a salt, the structure may show the parent alone.
Tests used:
GST-PDZD8(ΔTM) = target: T1, GST-PDZD8(ΔTM) (Mus musculus, UniProt B9EJ80); test: liposome-FRET lipid extraction assay; type: binding; conditions: labelled compound; donor liposomes PC/PE/rhodamine-PE; 25 °C
T1 sequence (B9EJ80 25-1147 limits assumed): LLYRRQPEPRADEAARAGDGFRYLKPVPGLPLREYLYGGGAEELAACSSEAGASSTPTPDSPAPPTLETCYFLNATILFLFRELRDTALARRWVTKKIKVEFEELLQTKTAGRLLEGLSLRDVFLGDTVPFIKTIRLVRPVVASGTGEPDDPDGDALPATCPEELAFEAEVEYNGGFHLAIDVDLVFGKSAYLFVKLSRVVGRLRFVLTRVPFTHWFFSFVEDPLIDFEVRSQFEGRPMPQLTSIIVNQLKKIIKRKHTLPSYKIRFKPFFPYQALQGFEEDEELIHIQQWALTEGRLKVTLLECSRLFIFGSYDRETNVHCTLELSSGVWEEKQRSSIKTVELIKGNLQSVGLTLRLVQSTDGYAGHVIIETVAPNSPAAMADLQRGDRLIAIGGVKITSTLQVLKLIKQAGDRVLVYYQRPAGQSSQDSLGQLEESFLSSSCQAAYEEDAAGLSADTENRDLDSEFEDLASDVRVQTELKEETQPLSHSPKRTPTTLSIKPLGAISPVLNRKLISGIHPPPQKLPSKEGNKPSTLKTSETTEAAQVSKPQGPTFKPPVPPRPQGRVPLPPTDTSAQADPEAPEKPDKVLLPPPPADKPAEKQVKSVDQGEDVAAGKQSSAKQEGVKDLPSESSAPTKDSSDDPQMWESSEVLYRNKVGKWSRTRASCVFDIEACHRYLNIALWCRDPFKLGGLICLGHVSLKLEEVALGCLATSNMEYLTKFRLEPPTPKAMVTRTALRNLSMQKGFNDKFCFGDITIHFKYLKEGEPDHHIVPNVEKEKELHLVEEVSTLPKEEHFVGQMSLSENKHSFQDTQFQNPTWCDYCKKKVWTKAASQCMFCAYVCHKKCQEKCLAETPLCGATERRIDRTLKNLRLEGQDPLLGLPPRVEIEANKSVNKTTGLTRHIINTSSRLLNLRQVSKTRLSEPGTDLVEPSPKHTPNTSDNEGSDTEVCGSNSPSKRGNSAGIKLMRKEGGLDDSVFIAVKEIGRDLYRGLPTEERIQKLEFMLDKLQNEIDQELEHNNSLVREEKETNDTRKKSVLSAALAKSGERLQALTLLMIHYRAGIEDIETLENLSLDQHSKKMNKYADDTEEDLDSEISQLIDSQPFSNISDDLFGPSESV

PDZD8(SMP-PDZ) = target: T2, PDZD8(SMP-PDZ) (Mus musculus, UniProt B9EJ80); test: liposome-FRET lipid extraction assay; type: binding; conditions: labelled compound; donor liposomes PC/PE/rhodamine-PE; 25 °C
T2 sequence (B9EJ80 87-448 limits assumed): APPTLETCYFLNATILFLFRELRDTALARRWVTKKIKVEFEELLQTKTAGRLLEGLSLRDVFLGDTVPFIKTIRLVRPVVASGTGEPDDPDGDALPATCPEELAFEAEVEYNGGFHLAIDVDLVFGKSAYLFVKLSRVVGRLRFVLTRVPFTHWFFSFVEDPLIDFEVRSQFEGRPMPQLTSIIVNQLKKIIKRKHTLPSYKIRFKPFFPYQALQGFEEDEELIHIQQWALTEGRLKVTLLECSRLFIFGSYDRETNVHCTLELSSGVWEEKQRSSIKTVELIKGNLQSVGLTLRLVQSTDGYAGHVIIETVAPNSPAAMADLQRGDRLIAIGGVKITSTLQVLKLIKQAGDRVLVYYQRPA

SMILES: CCCCCCCCCCCCC/C=C/[C@@H](O)[C@H](CO)NC(=O)CCCCCNc1ccc([N+](=O)[O-])c2nonc12 [C6-NBD-ceramide, N-{6-[(7-nitro-2-1,3-benzoxadiazol-4-yl)amino]hexanoyl}-D-erythro-sphingosine]
- initial velocity of lipid extraction (GST-PDZD8(ΔTM)): PDZD8(ΔTM) also showed high extraction activity for ceramide

SMILES: CCCCCCCCCCCCCCCC(=O)OC[C@H](COP(=O)(O)OC[C@H](N)C(=O)O)OC(=O)CCCCCCCCCCCNc1ccc([N+](=O)[O-])c2nonc12 [NBD-PS, 1-palmitoyl-2-{12-[(7-nitro-2-1,3-benzoxadiazol-4-yl)amino]dodecanoyl}-sn-glycero-3-phosphoserine (ammonium salt)]
- initial velocity of lipid extraction (GST-PDZD8(ΔTM)): with the initial velocity of lipid extraction being greatest for PS
- initial velocity of lipid extraction (PDZD8(SMP-PDZ)): The activity of PDZD8(SMP-PDZ) was also about half that of PDZD8(ΔTM)

— article PMC7486383, “Protrudin and PDZD8 contribute to neuronal integrity by promoting lipid extraction required for endosome maturation” (Nature Communications, 2020)
